Measured values taken from patent publication US4332794A, “6"-Deoxydibekacin, 4",6"-dideoxydibekacin and 1-N-aminoacyl derivatives thereof, and the production of these new compounds” (Zaidan Hojin Biseibutsu Kagaku Kenkyu Kai, priority 1979, dated 1982).
Converted amounts (≈) assume the structure as drawn. Read-outs that look alike come from different tables or passages of the source.

Experiments:
[1] = tested on: Staphylococcus aureus APO1; test: MIC, serial dilution on nutrient agar; assay type: cell-based; conditions: APO1, 18 h
[2] = tested on: Pseudomonas aeruginosa B-13; test: MIC, serial dilution on nutrient agar; assay type: cell-based
Providencia Pv 16 = test: MIC, serial dilution on nutrient agar; assay type: cell-based
Salmonella typhi F63 = test: MIC, serial dilution on nutrient agar; assay type: cell-based; conditions: Salmonella enterica, 18 h
Escherichia coli K-12 R5 = test: microbe, parasite or virus in culture; assay type: cell-based; conditions: K12R5, 18 h
[3] = tested on: Pseudomonas aeruginosa A3; test: MIC, serial dilution on nutrient agar; assay type: cell-based; conditions: A3, 18 h
[4] = tested on: Staphylococcus aureus Smith; test: MIC, serial dilution on nutrient agar; assay type: cell-based; conditions: 37° C., 18 hours
[5] = tested on: Pseudomonas aeruginosa H11; test: MIC, serial dilution on nutrient agar; assay type: cell-based
Sarcina lutea PCI 1001 = test: MIC, serial dilution on nutrient agar; assay type: cell-based; conditions: Micrococcus luteus
oto-toxicity = conditions: compounds of this invention
[6] = tested on: Pseudomonas aeruginosa H9; test: MIC, serial dilution on nutrient agar; assay type: cell-based
[7] = tested on: Bacillus subtilis PCI 219; test: MIC, serial dilution on nutrient agar; assay type: cell-based; conditions: PCI219, 37° C., 18 hours
[8] = tested on: Pseudomonas aeruginosa TI-13; test: MIC, serial dilution on nutrient agar; assay type: cell-based; conditions: TI13, nutrient agar, 37° C., 18 hours, read-out: MIC
[9] = tested on: Mycrococcus flavus FDA 16; test: MIC, serial dilution on nutrient agar; assay type: cell-based
[10] = tested on: Pseudomonas aeruginosa No. 12; test: MIC, serial dilution on nutrient agar; assay type: cell-based; conditions: NO.12, nutrient agar, 37° C., 18 hours, read-out: MIC
Proteus rettgeri GN311 = test: MIC, serial dilution on nutrient agar; assay type: cell-based; conditions: Providencia rettgeri, GN311; nutrient agar, 37° C., 18 hours; read-out: MIC
[11] = tested on: Bacillus cereus ATCC 10702; test: MIC, serial dilution on nutrient agar; assay type: cell-based
[12] = tested on: Pseudomonas aeruginosa PST1; test: MIC, serial dilution on nutrient agar; assay type: cell-based
[13] = tested on: Staphylococcus epidermidis 109; test: MIC, serial dilution on nutrient agar; assay type: cell-based; conditions: Staphylococcus epidermidis, 109, 18 h
[14] = tested on: Escherichia coli K-12 ML 1410; test: MIC, serial dilution on nutrient agar; assay type: cell-based; conditions: K12ML1410, 18 h
[15] = tested on: Escherichia coli K-12 LA 290 R64; test: MIC, serial dilution on nutrient agar; assay type: cell-based; conditions: K12LA290R64, 18 h
Serratia SOU = test: MIC, serial dilution on nutrient agar; assay type: cell-based; conditions: 37° C., 18 hours
Description: (§1) The minimum inhibitory concentrations (mcg/ml) of 6"-deoxydibekacin (abbreviated as 6"-DDKB), 4",6"-dideoxydibekacin (abbreviated as 4",6"-DDKB), 1-N-(L-4-amino-2-hydroxybutyryl)-6"-deoxydibekacin (abbreviated as AHB-6"-DDKB) and 1-N-(L-4-amino-2-hydroxybutyryl)-4",6"-dideoxydibekacin (abbreviated as AHB-4",6"-DDKB) of this invention against various microorganisms were determined according to serial dilution method on a nutrient agar medium at 37° C., the estimation being made after 18 hours incubation. For comparison purpose, the minimum inhibitory concentrations of dibekacin (abbreviated as DKB) were also determined in the same manner as stated above.

Serratia 4 = test: MIC, serial dilution on nutrient agar; assay type: cell-based; conditions: 37° C., 18 hours
Description: as §1

[16] = tested on: Pseudomonas aeruginosa GN315; test: MIC, serial dilution on nutrient agar; assay type: cell-based; conditions: 37° C., 18 hours
Description: as §1

[17] = tested on: Escherichia coli K-12 C 600R/35; test: MIC, serial dilution on nutrient agar; assay type: cell-based; conditions: K12C600R/35, 37° C., 18 hours
Description: as §1

Providencia 2991 = test: MIC, serial dilution on nutrient agar; assay type: cell-based; conditions: 37° C., 18 hours
Description: as §1

[18] = tested on: Staphylococcus aureus 209P; test: MIC, serial dilution on nutrient agar; assay type: cell-based; conditions: 37° C., 18 hours
Description: as §1

[19] = tested on: Escherichia coli K-12 ML 1629; test: MIC, serial dilution on nutrient agar; assay type: cell-based; conditions: K12ML1629, 37° C., 18 hours
Description: as §1

Shigella sonnei JS11746 = test: MIC, serial dilution on nutrient agar; assay type: cell-based; conditions: 37° C., 18 hours
Description: as §1

Serratia marcescens = test: MIC, serial dilution on nutrient agar; assay type: cell-based; conditions: 37° C., 18 hours
Description: as §1

[20] = tested on: Pseudomonas aeruginosa 21-75; test: MIC, serial dilution on nutrient agar; assay type: cell-based; conditions: 2175, 37° C., 18 hours
Description: as §1

[21] = tested on: Escherichia coli K-12 J5B 11-2; test: MIC, serial dilution on nutrient agar; assay type: cell-based; conditions: K12J5B112, 37° C., 18 hours
Description: as §1

[22] = tested on: Shigella flexneri 4b JS11811; test: MIC, serial dilution on nutrient agar; assay type: cell-based; conditions: 4BJS11811, 37° C., 18 hours
Description: as §1

[23] = tested on: Pseudomonas maltophilia GN907; test: MIC, serial dilution on nutrient agar; assay type: cell-based; conditions: Stenotrophomonas maltophilia, 37° C., 18 hours
Description: as §1

[24] = tested on: Klebsiella pneumoniae PCI 602; test: MIC, serial dilution on nutrient agar; assay type: cell-based; conditions: PCI602, 37° C., 18 hours
Description: as §1

[25] = tested on: Escherichia coli K-12 ML 1630; test: MIC, serial dilution on nutrient agar; assay type: cell-based; conditions: K12ML1630, 37° C., 18 hours
Description: as §1

Proteus vulgaris OX19 = test: MIC, serial dilution on nutrient agar; assay type: cell-based; conditions: 37° C., 18 hours
Description: as §1

Bacillus anthracis = test: microbe, parasite or virus in culture; assay type: cell-based; conditions: 18 h
[26] = tested on: Pseudomonas aeruginosa K-Ps102; test: MIC, serial dilution on nutrient agar; assay type: cell-based; conditions: KPS102, nutrient agar, 37° C., 18 hours, read-out: MIC
Escherichia coli NIHJ = test: MIC, serial dilution on nutrient agar; assay type: cell-based; conditions: 18 h

Compound	MIC [1]	MIC (Salmonella typhi F63)	MIC (Escherichia coli K-12 R5)	MIC [3]	MIC [4]	oto-toxicity (oto-toxicity)	MIC [7]	MIC [8]	MIC [10]	MIC (Proteus rettgeri GN311)	MIC [13]	MIC [14]	MIC [15]	MIC (Serratia SOU)	MIC (Serratia 4)	MIC [16]	MIC [17]	MIC (Providencia 2991)	MIC [18]	MIC [19]	other results
C[C@@H]1C[C@H](N)[C@@H](O)[C@@H](O[C@@H]2[C@@H](O)[C@H](O[C@H]3O[C@H](CN)CC[C@H]3N)[C@@H](N)C[C@H]2NC(=O)[C@@H](O)CCN)O1 [AHB-4",6"-DDKB, 1-N-(L-4-amino-2-hydroxybutyryl)-4",6"-dideoxydibekacin]	1.56 µg/mL (≈ 3 µM)	0.39 µg/mL (≈ 0.749 µM)	100 µg/mL (≈ 192 µM)	1.56 µg/mL (≈ 3 µM)	< 0.2 µg/mL	low oto-toxicity	< 0.2 µg/mL	25 µg/mL (≈ 48 µM)	12.5 µg/mL (≈ 24 µM)	25 µg/mL (≈ 48 µM)	1.56 µg/mL (≈ 3 µM)	1.56 µg/mL (≈ 3 µM)	0.78 µg/mL (≈ 1.5 µM)	> 100 µg/mL	6.25 µg/mL (≈ 12 µM)	100 µg/mL (≈ 192 µM)	0.78 µg/mL (≈ 1.5 µM)	100 µg/mL (≈ 192 µM)	0.78 µg/mL (≈ 1.5 µM)	1.56 µg/mL (≈ 3 µM)	MIC ([2]; B13, nutrient agar, 37° C., 18 hours, read-out: MIC): 12.5 µg/mL (≈ 24 µM); MIC (Providencia Pv 16; PV16, nutrient agar, 37° C., 18 hours, read-out: MIC): 25 µg/mL (≈ 48 µM); MIC ([5]; H11, 18 h): 50 µg/mL (≈ 96 µM); MIC (Sarcina lutea PCI 1001; PCI1001, 18 h): 3.13 µg/mL (≈ 6.01 µM); MIC ([6]; H9, 18 h): 6.25 µg/mL (≈ 12 µM); MIC ([9]; 18 h): 1.56 µg/mL (≈ 3 µM); MIC ([11]; ATCC10702, 18 h): 1.56 µg/mL (≈ 3 µM); MIC ([12]; PST1, nutrient agar, 37° C., 18 hours, read-out: MIC): 25 µg/mL (≈ 48 µM); MIC (Shigella sonnei JS11746): 3.13 µg/mL (≈ 6.01 µM); MIC (Serratia marcescens): 100 µg/mL (≈ 192 µM); MIC [20]: > 100 µg/mL; MIC [21]: 1.56 µg/mL (≈ 3 µM); MIC [22]: 6.25 µg/mL (≈ 12 µM); MIC [23]: > 100 µg/mL; MIC [24]: 0.78 µg/mL (≈ 1.5 µM); MIC [25]: 1.56 µg/mL (≈ 3 µM); MIC (Proteus vulgaris OX19): 0.39 µg/mL (≈ 0.749 µM); MIC (Bacillus anthracis): < 0.2 µg/mL; MIC [26]: 12.5 µg/mL (≈ 24 µM); MIC (Escherichia coli NIHJ): 1.56 µg/mL (≈ 3 µM)
C[C@H]1O[C@H](O[C@@H]2[C@@H](O)[C@H](O[C@H]3O[C@H](CN)CC[C@H]3N)[C@@H](N)C[C@H]2N)[C@H](O)[C@@H](N)[C@@H]1O [6"-DDKB, 6"-deoxydibekacin]	3.13 µg/mL (≈ 7.19 µM)	0.39 µg/mL (≈ 0.895 µM)	100 µg/mL (≈ 230 µM)	1.56 µg/mL (≈ 3.58 µM)	< 0.2 µg/mL	low oto-toxicity	< 0.2 µg/mL	12.5 µg/mL (≈ 28.7 µM)	6.25 µg/mL (≈ 14.4 µM)	6.25 µg/mL (≈ 14.4 µM)	1.56 µg/mL (≈ 3.58 µM)	3.13 µg/mL (≈ 7.19 µM)	25 µg/mL (≈ 57.4 µM)	> 100 µg/mL	100 µg/mL (≈ 230 µM)	100 µg/mL (≈ 230 µM)	3.13 µg/mL (≈ 7.19 µM)	> 100 µg/mL	0.78 µg/mL (≈ 1.79 µM)	1.56 µg/mL (≈ 3.58 µM)	MIC ([2]; B13, 18 h): 50 µg/mL (≈ 115 µM); MIC (Providencia Pv 16; PV16, 18 h): > 100 µg/mL; MIC ([5]; H11, nutrient agar, 37° C., 18 hours, read-out: MIC): 12.5 µg/mL (≈ 28.7 µM); MIC (Sarcina lutea PCI 1001; PCI1001, nutrient agar, 37° C., 18 hours, read-out: MIC): 25 µg/mL (≈ 57.4 µM); MIC ([6]; H9, nutrient agar, 37° C., 18 hours, read-out: MIC): 12.5 µg/mL (≈ 28.7 µM); MIC ([9]; nutrient agar, 37° C., 18 hours, read-out: MIC): 25 µg/mL (≈ 57.4 µM); MIC ([11]; ATCC10702, nutrient agar, 37° C., 18 hours, read-out: MIC): 6.25 µg/mL (≈ 14.4 µM); MIC ([12]; PST1, 18 h): > 100 µg/mL; MIC (Shigella sonnei JS11746): 3.13 µg/mL (≈ 7.19 µM); MIC (Serratia marcescens): 100 µg/mL (≈ 230 µM); MIC [20]: > 100 µg/mL; MIC [21]: 1.56 µg/mL (≈ 3.58 µM); MIC [22]: 3.13 µg/mL (≈ 7.19 µM); MIC [23]: > 100 µg/mL; MIC [24]: 1.56 µg/mL (≈ 3.58 µM); MIC [25]: 3.13 µg/mL (≈ 7.19 µM); MIC (Proteus vulgaris OX19): 0.39 µg/mL (≈ 0.895 µM); MIC (Bacillus anthracis): 0.39 µg/mL (≈ 0.895 µM); MIC [26]: 6.25 µg/mL (≈ 14.4 µM); MIC (Escherichia coli NIHJ): 1.56 µg/mL (≈ 3.58 µM)
